Measurements from patent publication US4623639A (Hoffmann-La Roche Inc., priority 1983, dated 1986).
Structures can show the parent of a compound that is named as a salt.

Columns and labels:
[1] = target: T1, Human granulocyte elastase (Homo sapiens, UniProt P08246); assay: Assay of the inhibition of human granulocyte elastase (succinyl (Ala)3-p-nitroanilide cleavage); assay type: biochemical; conditions: succinyl (Ala)3-p-nitroanilide substrate, 0.2M Tris HCl pH 8.0, 37° C., 1 hour; read-out: IC50 (concentration required to give 50% inhibition)
T1 sequence (P08246 30-267): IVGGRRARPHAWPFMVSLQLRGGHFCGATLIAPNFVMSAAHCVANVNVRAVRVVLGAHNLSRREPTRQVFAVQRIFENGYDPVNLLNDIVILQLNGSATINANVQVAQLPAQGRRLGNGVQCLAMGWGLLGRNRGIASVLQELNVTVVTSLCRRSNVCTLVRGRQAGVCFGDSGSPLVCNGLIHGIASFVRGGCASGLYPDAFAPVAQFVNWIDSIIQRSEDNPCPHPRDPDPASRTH
Experimental: ASSAY OF THE INHIBITION OF HUMAN GRANULOCYTE ELASTASE TEST METHOD
This assay is based on the method of J. Bieth, B. Spiess and C. G. Wermuth, Biochem. 11, (1974), 350.
Succinyl (Ala)3 -p-nitroanilide (20 μl of a 125 mM solution in N-methylpyrrolidone) was diluted in buffer (3 ml, 0.2M Tris HCl, pH 8.0) and warmed to 37° C. Human granulocyte elastase (4 μg in 20 μl of buffer) was added to initiate the reaction, which was terminated after 1 hour at 37° C. by the addition of glacial acetic acid (100 μl). The p-nitroaniline released was determined by measuring the extinction of the solution at 410 nm by means of a spectrophotometer. The compounds of the present invention, in 50 μl of methanol, were added to the buffered substrate prior to the addition of the human granulocyte elastase and the substrate cleavage rate was compared with solvent controls. The concentration of compound of the present invention required to give 50% inhibition was determined.

male mice = assay: Maximum tolerated dose test (no gross behavioural effects); assay type: in vivo; conditions: observed 6 hours and 24 hours after administration
Experimental: MAXIMUM TOLERATED DOSE TEST TEST METHOD
This test determines the maximum acute dose of a compound of this invention which causes no gross behavioural effects.
Groups of 3 male mice are administered 400 mg/kg and 100 mg/kg of a compound of this invention subcutaneously, intravenously or intraperitoneally. The mice are observed periodically during the 6 hours after the administration and 24 hours after the administration. Evidence of stimulation, sedation, loss of righting reflex, convulsions, tremor, death and other gross effects are noted. If effects are observed, the compound is tested at lower dosages in order to determine the no gross effect level. The results are expressed as the maximum dose administered in mg/kg which causes no gross behavioural effects.

| Compound | IC50 [1] | dosage at which no behavioural effects were observed (male mice; intravenously) | dosage at which no behavioural effects were observed (male mice; subcutaneously) | dosage at which no behavioural effects were observed (male mice; intraperitoneally) |
| --- | --- | --- | --- | --- |
| CC(C)[C@@H](C=O)NC(=O)[C@@H]1CCCN1C(=O)[C@H](CCCCNC(=O)CCC(=O)O)NS(=O)(=O)C12CC3CC(CC(C3)C1)C2 [N^α -(1-adamantylsulphonyl)-N^ε -succinyl-L-lysyl-L-prolyl-L-valinal] | 80 nM | 100 mg/kg | 400 mg/kg |  |
| CC(C)[C@@H](C=O)NC(=O)[C@@H]1CCCN1C(=O)[C@H](CCCCNC(=O)CCCCC(=O)O)NS(=O)(=O)C12CC3CC(CC(C3)C1)C2 [N^α -(1-adamantylsulphonyl)-N^ε -adipoyl-L-lysyl-L-prolylvalinal] | 80 nM |  |  |  |
| CC(C)CNC(=O)[C@@H]1CCCN1C(=O)[C@H](CCCCNC(=O)CCC(=O)O)NCCC12CC3CC(CC(C3)C1)C2 [N^α -(1-adamantylethyl)-N^ε -succinyl-L-lysyl-L-proline isobutylamide] | 4500 nM |  |  | 50 mg/kg |
| CC(C)[C@@H](C=O)NC(=O)[C@@H]1CCCN1C(=O)[C@H](CCCCNC(=O)c1ccccc1C(=O)O)NS(=O)(=O)C12CC3CC(CC(C3)C1)C2 [N^α -(1-adamantylsulphonyl)-N^ε -(2-carboxybenzoyl)-L-lysyl-L-prolylvalinal] | 90 nM |  |  |  |
| CC(C)[C@@H](C=O)NC(=O)[C@@H]1CCCN1C(=O)[C@H](CCCCNC(=O)c1ccc(C(=O)O)cc1)NS(=O)(=O)C12CC3CC(CC(C3)C1)C2 [N^α -(1-adamantylsulphonyl)-N^ε -(4-carboxybenzoyl)-L-lysyl-L-prolyl-L-valinal] | 60 nM | 100 mg/kg | 400 mg/kg | 100 mg/kg |
| CC(C)[C@@H](C=O)NC(=O)[C@H](C)NC(=O)[C@H](CCCCNC(=O)c1ccc(C(=O)O)cc1)NS(=O)(=O)C12CC3CC(CC(C3)C1)C2 [N^α -(1-adamantylsulphonyl)-N^ε -(4-carboxybenzoyl)-L-lysyl-L-alanyl-L-valinal] | 50 nM | 100 mg/kg | 400 mg/kg | 100 mg/kg |
| CC(C)[C@@H](C=O)NC(=O)[C@H](C)NC(=O)[C@H](CCCCNC(=O)CCC(=O)O)NS(=O)(=O)C12CC3CC(CC(C3)C1)C2 [N^α -(1-adamantylsulphonyl)-N^ε -succinyl-L-lysyl-L-alanylvalinal] | 120 nM |  |  |  |
| CC(C)CNC(=O)[C@@H]1CCCN1C(=O)[C@H](CCCCNC(=O)CC[C@H](N)C(=O)O)NCCC1CCC2CC1C2(C)C (some centres unmarked) [dihydrobromide] | 16000 nM |  |  |  |
